Laboratory results taken from article PMC9229294, “Pyridazinones and Structurally Related Derivatives with Anti-Inflammatory Activity” (Molecules, 2022).

Key:
[1] = system: LPS-induced NF-κB activity in THP1-Blue cells; experiment: Inhibition of LPS-induced NF-κB transcriptional activity, alkaline phosphatase reporter, THP1-Blue cells; format: cell-based, human; details: for Inhibition of LPS-induced NF-κB activity (in words): THP1-Blue cells; for IC50: LPS-induced NF-κB activity, human THP1-Blue cells, N.A. = no activity at 50 µM; for Observed class for inhibition of NF-κB activity: experimentally observed, Active or N.A.
Experimental: (§1) Our studies included 175 compounds that were previously synthesized and characterized at NEUROFARBA, Pharmaceutical and Nutraceutical Section, University of Florence, Italy. We previously evaluated the FPR1/FPR2 agonist activity of these compounds by evaluating their ability to induce Ca^2+ mobilization in FPR-transfected HL60 cells and human neutrophils. […] All test compounds were dissolved in DMSO at stock concentrations of 10 mM and stored at −20 °C. For primary screening assays (analysis of NF-κB activation, IL-6 production, and cytotoxicity), the following final concentrations of the compounds were used: 3.125, 6.25, 12.5, 25, and 50 µM; the final concentration of DMSO was 1% in all samples.
The activation of NF-κB was measured using an alkaline phosphatase reporter assay in human monocytic THP1-Blue cells stably transfected with a secreted embryonic alkaline phosphatase gene that is under the control of a promoter inducible by the NF-κB. The THP1-Blue cells (2 × 10^5 cells/well) were pretreated with the test compound or DMSO for 30 min, followed by an addition of 250 ng/mL LPS for 24 h. Alkaline phosphatase activity was determined in cell supernatants using a QUANTI-Blue mix (InvivoGen) and measured at 655 nm and compared with positive control samples (LPS).

FPR2 = target: T1, FPR2 (Homo sapiens, UniProt P25090); details: FPR2-transfected HL-60 cells; agonist activity from Table 1; read-out: Ca2+ Mobilization FPR2 EC50 in HL-60 Cells; cited from earlier work
T1 construct: expressed in transfected cells; host or cells: HL-60 cells (FPR2-HL60)
T1 sequence (P25090 1-351): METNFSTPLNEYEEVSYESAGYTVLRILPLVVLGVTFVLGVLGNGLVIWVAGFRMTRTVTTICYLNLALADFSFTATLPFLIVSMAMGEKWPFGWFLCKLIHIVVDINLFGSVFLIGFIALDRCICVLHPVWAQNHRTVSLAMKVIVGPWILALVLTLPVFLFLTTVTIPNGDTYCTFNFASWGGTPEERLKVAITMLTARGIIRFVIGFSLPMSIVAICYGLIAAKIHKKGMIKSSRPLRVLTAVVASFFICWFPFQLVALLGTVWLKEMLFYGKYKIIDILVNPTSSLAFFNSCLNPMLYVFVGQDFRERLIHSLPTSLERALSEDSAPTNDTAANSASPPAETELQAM

FPR1 = target: T2, FPR1 (Homo sapiens, UniProt P21462); details: FPR1-transfected HL-60 cells; agonist activity from Table 1; read-out: Ca2+ Mobilization FPR1 EC50 in HL-60 Cells; cited from earlier work
T2 construct: expressed in transfected cells; host or cells: HL-60 cells (FPR1-HL60)
T2 sequence (P21462 1-350): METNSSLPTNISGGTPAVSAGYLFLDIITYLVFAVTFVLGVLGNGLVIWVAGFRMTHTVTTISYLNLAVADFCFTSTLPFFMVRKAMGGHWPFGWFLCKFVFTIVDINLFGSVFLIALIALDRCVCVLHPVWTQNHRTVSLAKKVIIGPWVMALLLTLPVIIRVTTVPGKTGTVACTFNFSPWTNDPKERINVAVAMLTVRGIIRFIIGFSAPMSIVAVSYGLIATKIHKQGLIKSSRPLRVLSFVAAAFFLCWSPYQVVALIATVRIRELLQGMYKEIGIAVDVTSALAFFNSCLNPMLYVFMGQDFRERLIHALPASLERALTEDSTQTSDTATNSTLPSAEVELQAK

[2] = Cytotoxicity, CellTiter-Glo, THP1-Blue cells; format: cell-based, human; details: human, THP1-Blue cells
Experimental: as §1
(§2) The cytotoxicity was analyzed with a CellTiter-Glo Luminescent Cell Viability Assay Kit from Promega (Madison, WI, USA), according to the manufacturer’s protocol. The luminescent ATP assays are based on a luciferase enzymatic reaction which uses ATP from viable cells to generate photons. For this assay, the cells were incubated with the compounds under investigation for 24 h. After treatment, the cells were equilibrated to room temperature for 30 min, luciferase + luciferin substrate was added, and the samples were analyzed with a Fluoroscan Ascent FL (Thermo Fisher Scientific, Waltham, MA, USA). The IC50 values were calculated by plotting the percentage inhibition against the logarithm of the inhibitor concentration (at least five points).

[3] = system: LPS-induced IL-6 production in MonoMac-6 cells; experiment: Inhibition of LPS-induced IL-6 production in MonoMac-6 cells (ELISA); format: cell-based, human; details: for IC50: Homo sapiens, MONO-MAC-6, read-out: Inhibition of IL-6 Production IC50 in MonoMac-6 Cells; for Inhibition of LPS-induced IL-6 production (in words): MonoMac-6 cells, 250 ng/mL LPS, 24 h
Experimental: as §1
A human IL-6 ELISA kit (BD Biosciences, San Jose, CA, USA) was used to measure IL-6 production. […] The cells were pretreated with the test compound or DMSO for 30 min, followed by addition of 250 ng/mL LPS for 24 h. The IC50 values for IL-6 production were calculated by plotting the percentage inhibition against the logarithm of the inhibitor concentration (at least five points).

[4] = Cytotoxicity, CellTiter-Glo, MonoMac-6 cells; format: cell-based, human; details: human, MonoMac-6 cells
Experimental: as §1, §2

[5] = N.T. = no cytotoxicity at 50 µM, read-out: Cytotoxicity IC50 in THP1-Blue Cells

Row | Molecule | IC50 ([1]; Homo sapiens) | EC50 (FPR2) | EC50 (FPR1) | IC50 at 24 h [2, 5] | Observed class for inhibition of NF-κB activity [1] | other results
1 | COc1ccc(-c2cc(C)nn(CC(=O)Nc3ccc(Br)cc3)c2=O)cc1 [Compound 19] |  |  |  |  |  | Inhibition of LPS-induced NF-κB activity (in words) ([1]; 250 ng/mL LPS, 24 h): inactive
2 | CCCCOc1ccc(-c2c(OC)cnn(Cc3ccc(OC)cc3)c2=O)cc1 [Compound 109] | 31.3 ± 1.6 µM | > 50 µM | > 50 µM | > 50 µM | Active | 
3 | COc1cccc(Cn2cc(CC(=O)Nc3ccc(Br)cc3)c3ccccc32)c1 [Compound 134] |  |  |  |  |  | Inhibition of LPS-induced NF-κB activity (in words) ([1]; 250 ng/mL LPS, 24 h): inactive
4 | O=C(Cn1c(-c2ccc(Cl)cc2)csc1=O)Nc1ccc(Br)cc1 [Compound 168] | 43.4 ± 4.2 µM | 2.4 µM | 2.8 µM | > 50 µM | Active | 
5 | COc1cccc(Cc2cc(C)nn(CCNC(=O)Nc3ccc(Br)cc3)c2=O)c1 [Compound 113] | 37 ± 0.4 µM |  |  | > 50 µM | Active | 
6 | COc1cccc(Nc2cn(-c3ccccc3)n(CC(=O)Nc3ccc(Br)cc3)c2=O)c1 [Compound 164] | 35.7 ± 1.9 µM | > 50 µM | 29 µM | > 50 µM | Active | 
7 | COc1cccc(Cc2cc(C)nn(CC(=O)Nc3cccc(Br)c3)c2=O)c1 [Compound 2] | 44.5 ± 2.5 µM |  |  | > 50 µM | Active | IC50 [3]: 30.7 ± 3.6 µM; Inhibition of LPS-induced IL-6 production (in words) [3]: inhibitors of IL-6 production; IC50 at 24 h [4]: > 50 µM
8 | CC1CC(c2ccccc2)=NN(CC(=O)Nc2ccc(F)cc2)C1=O (stereo not shown) [Compound 122] | 46.3 ± 2.4 µM | > 50 µM | > 50 µM | > 50 µM |  | 
9 | Cc1cc(Cc2cccc(Cl)c2)c(=O)n(CC(=O)Nc2ccc(I)cc2)n1 [Compound 23] | 7.1 ± 2 µM |  |  | > 50 µM | Active | IC50 [3]: 13.1 ± 0.3 µM; IC50 at 24 h [4]: > 50 µM
10 | COc1cccc(Cc2cc(C(C)C)nn(CC(=O)Nc3ccc(Br)cc3)c2=O)c1 [Compound 10] | 22 ± 1.7 µM |  |  | > 50 µM | Active | IC50 [3]: 8.7 ± 1.6 µM; IC50 at 24 h [4]: > 50 µM
11 | CC(C)c1c(NC(=O)Nc2ccc(Cl)cc2)c(=O)n(-c2ccccc2)n1C [Cmpd43, N-(4-chlorophenyl)-N′-(5-isopropyl-1-methyl-3-oxo-2-phenyl-2,3-dihydro-1H-pyrazol-4-yl)urea, reference compound] |  |  |  | > 50 µM |  | IC50 [1]: > 50 µM; Inhibition of LPS-induced NF-κB activity (in words) ([1]; 250 ng/mL LPS, 24 h): did not inhibit
12 | COc1cccc(-c2nn(CC(=O)Nc3ccc(Br)cc3)c(C)c2C#N)c1 [Compound 160] |  | 4.8 µM | 8.2 µM | > 50 µM | Active | IC50 [1]: 28.8 ± 2 µM
13 | N-formyl-Met-Leu-Phe [fMLF, reference compound] |  |  |  |  |  | Inhibition of LPS-induced IL-6 production (in words) [3]: did not affect; Inhibition of LPS-induced NF-κB activity (in words) ([1]; peptide at 5 nM): did not inhibit
14 | COc1ccc(Nc2c(C#N)cnn2CC(=O)Nc2ccc(Br)cc2)cc1 [Compound 156] | 25 ± 0.4 µM | > 50 µM | > 50 µM | > 50 µM | Active | 
15 | CCC(C)(C(=O)Nc1ccc(Br)cc1)n1nc(C)cc(Cc2cccc(OC)c2)c1=O (stereo not shown) [Compound 90] | 39.2 ± 6.7 µM | 2.1 µM | 1.5 µM | > 50 µM |  | 
16 | Cc1cc(Cc2ccc(C(F)(F)F)cc2)c(=O)n(CC(=O)Nc2ccc(Br)cc2)n1 [Compound 66] | 31.5 ± 2.2 µM | > 50 µM | > 50 µM | 26.4 ± 4.7 µM | Active | IC50 at 24 h ([2]; 24 h, read-out: Cytotoxicity IC50): 22 to 26 µM
17 | COc1cccc(Cc2cc(C)nn(CC(=O)Nc3ccc(Br)cc3)c2=O)c1 [Compound 1] |  |  |  |  |  | Inhibition of LPS-induced NF-κB activity (in words) ([1]; 250 ng/mL LPS, 24 h): inactive
18 | COc1ccc2c(c1)c(CC(=O)Nc1ccc(Br)cc1)c(C)n2C(=O)c1ccc(Cl)cc1 [Compound 133] |  |  |  |  |  | Inhibition of LPS-induced NF-κB activity (in words) ([1]; 250 ng/mL LPS, 24 h): inactive
19 | COc1cccc(-c2cc(C#N)c(=O)n(CC(=O)Nc3ccc(Br)cc3)c2C)c1 [Compound 141] | 15.3 ± 4.9 µM |  |  | > 50 µM | Active | IC50 [3]: 24.5 ± 0.8 µM; IC50 at 24 h [4]: > 50 µM

Second part, led by results:

Row | IC50 ([1]; Homo sapiens) | Molecule | EC50 (FPR2) | EC50 (FPR1) | IC50 at 24 h [2, 5] | Observed class for inhibition of NF-κB activity [1] | other results
20 | 28.4 ± 5.7 µM | Cc1cc(Cc2ccccc2)c(=O)n(CC(=O)Nc2ccc(Br)cc2)n1 [Compound 30] |  |  | > 50 µM | Active | 
21 | 33.6 ± 2.1 µM | COc1cccc(Cc2cc(C)nn(CC(=O)Nc3ccc(F)cc3)c2=O)c1 [Compound 15] |  |  | > 50 µM | Active | 
22 | 34.5 ± 2.1 µM | COc1ccc(Cc2cc(-c3ccc(F)cc3)nn(CC(=O)Nc3ccc(Br)cc3)c2=O)cc1 [Compound 49] | > 50 µM | > 50 µM | > 50 µM | Active | 
23 | 27.9 ± 2.1 µM | Cc1cc(Cc2cccc(F)c2)c(=O)n(CC(=O)Nc2ccc(Br)cc2)n1 [Compound 64] |  |  | > 50 µM | Active | 
24 | 43 ± 3.9 µM | Cc1ccc(-n2ccc(=O)n(CC(=O)Nc3ccc(Br)cc3)c2=O)cc1 [Compound 149] | 14.9 µM | 13.6 µM | > 50 µM | Active | 
25 | 39.4 ± 4.2 µM | CCC(C(=O)Nc1ccc(Br)cc1)n1nc(C)cc(Cc2cccc(OC)c2)c1=O (stereo not shown) [Compound 88] | 2.2 µM | 1.3 µM | > 50 µM |  | 
26 | 30.9 ± 2.3 µM | Cc1cc(-c2ccccc2)nn(CC(=O)Nc2ccc(Br)cc2)c1=O [Compound 67] | 10.1 µM | 21.5 µM | > 50 µM |  | Inhibition of LPS-induced NF-κB activity (in words) ([1]; 250 ng/mL LPS, 24 h): active
27 | 46.1 ± 1 µM | COc1cccc(Cc2cc(C)nn(CC(=O)Nc3ccc([N+](=O)[O-])cc3)c2=O)c1 [Compound 5] |  |  | > 50 µM | Active | 
28 | 42.7 ± 0.3 µM | CC1CC(c2ccccc2)=NN(CC(=O)Nc2ccc(Br)cc2)C1=O (stereo not shown) [Compound 124] | 10.7 µM | 19.5 µM | > 50 µM |  | 
29 | 32.8 ± 0.7 µM | COc1ccc(N(c2ccc(OC)cc2)c2cc(C)nn(CC(=O)Nc3ccc(Br)cc3)c2=O)cc1 [Compound 50] | > 50 µM | > 50 µM | > 50 µM | Active | 
